# Measurements taken from ChEMBL document CHEMBL5712916, “Frequent upregulation of G9a promotes RelB-dependent proliferation and survival in multiple myeloma” (Exp Hematol Oncol, 2020).
# Activity calls are given as the source filed them. The rule behind the calls is not given here.
# Legend:
# [1] = Cytotoxicity against human Bortezomib-resistant RPMI-8226 cells assessed as reduction in cell viability measured after 72 hrs by MTS assay; type: functional, cell-based; details: Bortezomib-resistant RPMI-8226, 72 h
# [2] = tested on: RPMI-8226; assay: Cytotoxicity against human RPMI-8226 cells assessed as reduction in cell viability measured after 72 hrs by MTS assay; type: functional, cell-based; details: RPMI-8226, 72 h
# [3] = tested on: JJN-3; assay: Cytotoxicity against human JJN-3 cells assessed as reduction in cell viability measured after 72 hrs by MTS assay; type: functional, cell-based; details: JJN-3, 72 h
# [4] = tested on: KMS-12-BM; assay: Cytotoxicity against human KMS-12-BM cells assessed as reduction in cell viability measured after 72 hrs by MTS assay; type: functional, cell-based
# [5] = Cytotoxicity against human Bortezomib-resistant RPMI-8226 cells assessed as reduction in cell viability measured after 72 hrs by Celltiter-glo luminescent cell viability assay; type: functional, cell-based; details: Bortezomib-resistant RPMI-8226, 72 h
# [6] = tested on: RPMI-8226; assay: Cytotoxicity against human RPMI-8226 cells assessed as reduction in cell viability measured after 72 hrs by Celltiter-glo luminescent cell viability assay; type: functional, cell-based; details: RPMI-8226, 72 h
# [7] = tested on: JJN-3; assay: Cytotoxicity against human JJN-3 cells assessed as reduction in cell viability measured after 72 hrs by Celltiter-glo luminescent cell viability assay; type: functional, cell-based; details: JJN-3, 72 h
# [8] = tested on: KMS-12-BM; assay: Cytotoxicity against human KMS-12-BM cells assessed as reduction in cell viability measured after 72 hrs by Celltiter-glo luminescent cell viability assay; type: functional, cell-based
# [9] = tested on: KMS-12-BM; assay: Cytotoxicity against human KMS-12-BM cells expressing shNT assessed as reduction in cell viability measured after 72 hrs by Celltiter-glo luminescent cell viability assay; type: functional, cell-based
# [10] = biological target: T1, Histone-lysine N-methyltransferase EHMT2 (Homo sapiens) (UniProt Q96KQ7); assay: Inhibition of G9a in human KMS-12-BM cells assessed as reduction in H3K9me2 level at cytotoxic IC50 measured after 72 hrs by Western blot analysis; type: cell-based
# T1 sequence (whole entry): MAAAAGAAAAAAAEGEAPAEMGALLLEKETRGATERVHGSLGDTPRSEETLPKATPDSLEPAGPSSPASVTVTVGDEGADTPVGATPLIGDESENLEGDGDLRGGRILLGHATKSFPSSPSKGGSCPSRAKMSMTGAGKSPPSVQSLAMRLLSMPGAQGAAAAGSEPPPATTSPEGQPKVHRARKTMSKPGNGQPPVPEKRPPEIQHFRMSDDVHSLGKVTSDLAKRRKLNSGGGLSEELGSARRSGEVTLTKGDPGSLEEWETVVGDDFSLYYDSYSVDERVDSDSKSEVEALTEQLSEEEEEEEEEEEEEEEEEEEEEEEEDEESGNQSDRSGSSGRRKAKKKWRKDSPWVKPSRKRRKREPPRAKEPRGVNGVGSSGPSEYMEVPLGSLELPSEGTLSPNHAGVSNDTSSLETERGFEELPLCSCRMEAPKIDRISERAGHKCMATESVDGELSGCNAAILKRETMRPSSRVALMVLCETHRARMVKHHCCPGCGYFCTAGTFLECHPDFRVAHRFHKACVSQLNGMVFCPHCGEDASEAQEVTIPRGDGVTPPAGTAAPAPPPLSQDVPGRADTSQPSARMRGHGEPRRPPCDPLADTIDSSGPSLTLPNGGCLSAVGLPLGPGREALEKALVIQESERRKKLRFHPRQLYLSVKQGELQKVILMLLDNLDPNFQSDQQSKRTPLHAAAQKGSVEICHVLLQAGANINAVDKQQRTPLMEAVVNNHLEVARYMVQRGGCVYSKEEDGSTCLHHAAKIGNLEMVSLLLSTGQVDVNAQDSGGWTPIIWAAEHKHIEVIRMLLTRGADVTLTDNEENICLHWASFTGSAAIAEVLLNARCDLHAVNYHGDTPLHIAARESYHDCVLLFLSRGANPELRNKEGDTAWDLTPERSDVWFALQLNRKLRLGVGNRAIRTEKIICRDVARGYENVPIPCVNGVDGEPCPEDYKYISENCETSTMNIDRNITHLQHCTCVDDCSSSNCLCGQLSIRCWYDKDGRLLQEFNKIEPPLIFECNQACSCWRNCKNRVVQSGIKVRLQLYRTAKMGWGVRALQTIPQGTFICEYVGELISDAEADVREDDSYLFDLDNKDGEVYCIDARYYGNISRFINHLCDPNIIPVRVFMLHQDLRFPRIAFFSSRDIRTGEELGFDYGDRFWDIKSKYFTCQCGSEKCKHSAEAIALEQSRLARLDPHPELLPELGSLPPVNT
# [11] = tested on: KMS-12-BM; assay: Effect on G9a expression in human KMS-12-BM cells at cytotoxic IC50 measured after 72 hrs by Western blot analysis; type: functional, cell-based
# [12] = biological target: T1, Histone-lysine N-methyltransferase EHMT2 (Homo sapiens); assay: Inhibition of G9a in human JJN-3 cells assessed as reduction in RelB mRNA expression at cytotoxic IC50 measured after 72 hrs by qRT-PCR analysis; type: cell-based
# [13] = biological target: T1, Histone-lysine N-methyltransferase EHMT2 (Homo sapiens); assay: Inhibition of G9a in human JJN-3 cells assessed as increase in BMF mRNA expression at cytotoxic IC50 measured after 72 hrs by qRT-PCR analysis; type: cell-based
# [14] = tested on: KMS-12-BM; assay: Cytotoxicity against human KMS-12-BM cells expressing shG9a assessed as reduction in cell viability measured after 72 hrs by Celltiter-glo luminescent cell viability assay; type: functional, cell-based
# [15] = tested on: KMS-12-BM; assay: Cytotoxicity against human KMS-12-BM cells assessed as decrease in number of colonies incubated for 14 days by colony formation assay; type: functional, cell-based; details: time 14.0 day
# [16] = tested on: JJN-3; assay: Cytotoxicity against human JJN-3 cells assessed as decrease in number of colonies incubated for 14 days by colony formation assay; type: functional, cell-based; details: time 14.0 day
# [17] = biological target: Histone-lysine N-methyltransferase EZH2 (Homo sapiens, UniProt Q15910); assay: Inhibition of EZH2 (unknown origin)
# [18] = Cytotoxicity against human MSC cells assessed as reduction in cell viability measured after 72 hrs by MTS assay; type: toxicity, cell-based
# [19] = Cytotoxicity against human CD38-positive cells assessed as reduction in cell viability measured after 72 hrs by Celltiter-glo luminescent cell viability assay; type: toxicity, cell-based
# [20] = tested on: JJN-3; assay: Cytotoxicity against human JJN-3 cells expressing shNT assessed as reduction in cell viability measured after 72 hrs by Celltiter-glo luminescent cell viability assay; type: functional, cell-based; details: JJN-3, 72 h
# [21] = tested on: JJN-3; assay: Cytotoxicity against human JJN-3 cells expressing shG9a assessed as reduction in cell viability measured after 72 hrs by Celltiter-glo luminescent cell viability assay; type: functional, cell-based; details: JJN-3, 72 h
# [22] = tested on: KMS-12-BM; assay: Cytotoxicity against human KMS-12-BM cells assessed as reduction in colony size incubated for 14 days by colony formation assay; type: functional, cell-based; details: time 14.0 day
# [23] = tested on: JJN-3; assay: Cytotoxicity against human JJN-3 cells assessed as reduction in colony size incubated for 14 days by colony formation assay; type: functional, cell-based; details: time 14.0 day
# [24] = biological target: T1, Histone-lysine N-methyltransferase EHMT2 (Homo sapiens); assay: Inhibition of G9a in human JJN-3 cells assessed as increase in Bim mRNA expression at cytotoxic IC50 measured after 72 hrs by qRT-PCR analysis; type: cell-based
# [25] = biological target: T1, Histone-lysine N-methyltransferase EHMT2 (Homo sapiens); assay: Inhibition of G9a in human JJN-3 cells assessed as decrease in NFKB2 expression at cytotoxic IC50 measured after 72 hrs by Western blot analysis; type: cell-based
# [26] = biological target: T1, Histone-lysine N-methyltransferase EHMT2 (Homo sapiens); assay: Inhibition of G9a in human JJN-3 cells assessed as decrease in p100 expression at cytotoxic IC50 measured after 72 hrs by Western blot analysis; type: cell-based
# [27] = biological target: T1, Histone-lysine N-methyltransferase EHMT2 (Homo sapiens); assay: Inhibition of G9a in human JJN-3 cells assessed as decrease in p52 expression at cytotoxic IC50 measured after 72 hrs by Western blot analysis; type: cell-based
# Histone-lysine N-methyltransferase EZH2, sequence (Q15910 whole entry): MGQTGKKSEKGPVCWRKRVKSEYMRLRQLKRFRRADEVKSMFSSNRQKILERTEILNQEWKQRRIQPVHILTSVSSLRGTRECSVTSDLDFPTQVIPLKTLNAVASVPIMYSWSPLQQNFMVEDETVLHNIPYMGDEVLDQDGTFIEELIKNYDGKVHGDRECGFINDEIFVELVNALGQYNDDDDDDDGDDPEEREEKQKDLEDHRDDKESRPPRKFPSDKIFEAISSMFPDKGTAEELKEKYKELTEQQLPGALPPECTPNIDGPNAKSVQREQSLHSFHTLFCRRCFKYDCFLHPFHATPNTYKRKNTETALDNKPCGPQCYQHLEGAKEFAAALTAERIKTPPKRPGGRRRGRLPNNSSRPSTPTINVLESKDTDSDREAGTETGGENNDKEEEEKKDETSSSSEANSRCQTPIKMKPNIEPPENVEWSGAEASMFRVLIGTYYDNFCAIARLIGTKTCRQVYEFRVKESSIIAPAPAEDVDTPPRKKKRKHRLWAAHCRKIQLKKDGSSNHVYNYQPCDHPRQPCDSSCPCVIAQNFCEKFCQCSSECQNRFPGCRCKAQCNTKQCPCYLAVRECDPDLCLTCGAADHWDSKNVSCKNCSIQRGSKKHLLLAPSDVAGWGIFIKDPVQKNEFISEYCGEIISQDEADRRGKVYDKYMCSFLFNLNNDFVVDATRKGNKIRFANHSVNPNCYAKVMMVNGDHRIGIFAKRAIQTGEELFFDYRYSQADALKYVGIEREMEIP
smiles,measurement,setting,value
COc1cc2c(NC3CCN(C(C)C)CC3)nc(N3CCC(F)(F)CC3)nc2cc1OCCCN1CCCC1,IC50,[1],12.6 µM
same,IC50,[2],26.9 µM
same,IC50,[3],19 µM
same,IC50,[4],20.3 µM
same,IC50,[5],25.4 µM
same,IC50,[6],22 µM
same,IC50,[7],5.85 µM
same,IC50,[8],10.8 µM
same,IC50,[9],23.7 µM
same,inhibition,[10],Active
same,Activity,[11],inactive
same,inhibition,[12],Active
same,inhibition,[13],Active
same,IC50,[14],58.7 µM
same,Activity,[15],Active
same,Activity,[16],Active
same,IC50,[17],5 µM
same,IC50 at 72 h,[18],36.9 µM
same,IC50 at 72 h,[19],6.91 µM
same,IC50,[20],6.81 µM
same,IC50,[21],17.8 µM
same,Activity,[22],Active
same,Activity,[23],Active
same,inhibition,[24],Active
same,inhibition,[25],Active
same,inhibition,[26],Active
same,inhibition,[27],Active
